Experimental data taken from patent publication US8802695B2, “Apoptosis signal-regulating kinase 1 inhibitors” (Takeda Pharmaceutical Company Limited, priority 2010, dated 2014).

How the values were obtained:
[1] = target: T1, ASK1 (Homo sapiens (Human), UniProt Q99683); test: Scintillation assay for inhibitory effect against ASK1 (Example B; myelin basic protein substrate, [γ-32P]ATP); format: biochemical; details: 2.5 μM ATP solution, read-out: Enzyme Activity B IC50
Text: (§1) The inhibitory effect of the compound of the invention on ASK1 may be evaluated by evaluating the phosphorylating activity of the enzyme on a known substrate with or without the presence of the test compound. Example B provides such an assay where myelin basic protein (Wako) is used as substrate and detection is by scintillation counting. It should be understood other substrates and detection mechanism may be used. A commercially available a kit, Cisbio's HTRF® KinEASE™ STK kit, has shown to be useful for evaluating ASK1 activity. The assay uses an anti-phosphoseric specific, Eu^3+-Cryptate labeled antibody to mark the phosphorylated product of ASK1 on a biotinylated kinase substrate, and detection is by time resolved fluorescence using XL665 labeled streptavidin. The fluorescence intensity is proportional to the amount of product formation. Example C provides the assay protocol.
Cloning of cDNA encoding human ASK1 was conducted by PCR using primers, 5′-[…] […]-3′ (SEQ ID NO: 1) and 5′-AAAGCGGCCGCTCAA […]-3′ (SEQ ID NO: 2), from human heart cDNA library (Becton, Dickinson and Company). The PCR product was subjected to agarose gel (1%) electrophoresis, a 2.2 kb DNA fragment containing an ASK1 gene was recovered from the gel, and then digested with restriction enzymes, NotI and SalI, and inserted into a plasmid pFASTBAC1 (Invitrogen) to prepare a plasmid pFB-ASK1. The insert was verified by sequencing. Recombinant baculovirus was prepared according to the procedure of the Bac-to-Bac baculovirus expression system (Invitrogen).
Sf-21 cells were seeded to achieve 1×10^6 cells/mL in 100 mL of Sf-900 II SFM medium (Invitrogen) which contains 10% fetal calf serum and then cultured at 27° C. for 24 hrs. To express ASK1 in cells, 0.15 mL of the recombinant baculovirus virus stock was added to cells, and the then cultured for 60 hrs. The cells were separated from the culture solution by centrifugation at 3000 rpm for 10 min and washed once with PBS. The cells were suspended in 10 mL of lysis buffer (25 mM HEPES (pH 7.5), 1% Triton X, 130 mM NaCl, 1 mM EDTA, 1 mM DTT, 25 mM (3-glycerophosphate, Protease inhibitor complete (Roche), 1 mM sodium orthovanadate) and ruptured by four times of treatment with a homogenizer (POLYTRON) at 20000 rpm for 30 seconds. Active ASK1 protein was purified from a supernatant obtained by centrifugal separation at 40000 rpm for 45 min using anti-FLAG M2 Affinity Gel (Sigma).
Scintillation Assay for Measuring the Inhibitory Effect of Exemplified Compounds of the Invention Against ASK1
The test compounds (2.5 μL) dissolved in DMSO were added to wells containing 37.5 μL of the reaction solution (25 mM HEPES (pH 7.5), 10 mM magnesium acetate, 1 mM DTT) including 30 ng of active ASK1 protein and 1 μg of myelin basic protein (Wako), and incubated at room temperature for 5 min. To start the reaction, 10 μL of ATP solution (2.5 μM ATP, 0.1 μCi [γ-^32P]ATP) was added to wells. After incubating at room temperature for 30 min, the reaction was terminated by adding 50 μL of 20% TCA solution. The reaction solution was incubated at 4° C. for 30 min and an acid-insoluble fraction was transferred onto a GF/C filter (Packard) with Cell Harvester (Packard), and washed with 250 mM phosphoric acid. After drying at 45° C. for 60 min., 40 μL of Microscint 0 (Packard) was added and the radioactivity was measured with TopCount (Packard). The concentrations (IC50 value) of the test compounds necessary for 50% inhibition of kinase activity were calculated by PRISM 3.0 (Graphpad Software).
Target sequence in this assay (Q99683 650-1374): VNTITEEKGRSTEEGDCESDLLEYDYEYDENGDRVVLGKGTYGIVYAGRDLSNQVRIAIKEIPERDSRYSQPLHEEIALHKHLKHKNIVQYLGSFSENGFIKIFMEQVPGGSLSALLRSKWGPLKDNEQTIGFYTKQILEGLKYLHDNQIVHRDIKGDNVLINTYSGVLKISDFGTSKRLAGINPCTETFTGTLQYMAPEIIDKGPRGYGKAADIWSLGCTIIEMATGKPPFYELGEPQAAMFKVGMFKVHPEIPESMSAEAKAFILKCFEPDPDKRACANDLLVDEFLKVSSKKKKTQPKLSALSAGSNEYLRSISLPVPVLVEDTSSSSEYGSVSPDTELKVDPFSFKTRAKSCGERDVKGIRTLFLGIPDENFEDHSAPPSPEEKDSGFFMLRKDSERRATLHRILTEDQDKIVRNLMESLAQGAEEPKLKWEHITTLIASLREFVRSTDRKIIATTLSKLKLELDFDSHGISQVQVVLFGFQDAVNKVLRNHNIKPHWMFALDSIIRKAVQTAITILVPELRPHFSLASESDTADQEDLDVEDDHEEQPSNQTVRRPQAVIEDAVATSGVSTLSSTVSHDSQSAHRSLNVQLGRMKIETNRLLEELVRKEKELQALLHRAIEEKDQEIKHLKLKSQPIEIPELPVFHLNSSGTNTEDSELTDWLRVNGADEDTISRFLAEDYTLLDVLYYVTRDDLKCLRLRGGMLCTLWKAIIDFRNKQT

[2] = target: T1, ASK1; test: Homogeneous Time-Resolved Fluorescence (HTRF) assay for inhibitory effect against ASK1 (Example C; KinEASE STK S3 kit); format: biochemical; details: 25 nM ASK1, 100 μM ATP, read-out: Enzyme Activity C IC50
Text: as §1
Target sequence in this assay (Q99683 649-946): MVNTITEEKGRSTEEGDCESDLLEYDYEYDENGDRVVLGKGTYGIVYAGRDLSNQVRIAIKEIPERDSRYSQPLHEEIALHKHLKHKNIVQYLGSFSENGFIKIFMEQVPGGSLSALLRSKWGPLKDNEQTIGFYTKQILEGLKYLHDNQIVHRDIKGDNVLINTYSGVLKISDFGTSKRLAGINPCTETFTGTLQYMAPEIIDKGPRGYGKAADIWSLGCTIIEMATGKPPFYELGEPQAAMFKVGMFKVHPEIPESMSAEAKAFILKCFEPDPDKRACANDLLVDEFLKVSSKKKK
Homogeneous Time-Resolved Fluorescence (HTRF) Assay for Measuring the Inhibitory Effect of Exemplified Compounds of the Invention Against ASK1
Recombinant human ASK1 is purchased from Millipore (Cat #14-606). The enzymatic assay of ASK1 is set up by using HTRF® KinEASE™ STK S3 kit, the Universal Assay for Serine/Threonine Kinases kit from CisBio.
The inhibitory properties of compounds to ASK1 may be determined using a white 384-well-plate format under the following reaction conditions: 25 nM ASK1, 1 μM CisBio STK S3-biotion peptide, 100 μM ATP, and 1%-2% DMSO in kinase assay buffer of 50 mM HEPES, pH 7.3, 10 mM NaCl, 10 mM MgCl2, 0.01% Brij35, 0.2 mM EDTA, and 1 mM DTT. Reaction product is determined quantitatively by HTRF after the addition of detection reagent SA-XL665 and STK-antibody-cryptate.
The assay reaction may be initiated as follows: 2 μl of the mixture of 3 μM CisBio STK S3-biotion peptide and 300 μM ATP with 2 μl of test compound (2 fold serial dilutions for 11 data points for each inhibitor) containing 3%-6% DMSO are added to each well of the plate, followed by the addition of 2 μL of 75 nM ASK1 to initiate the reaction (final enzyme concentration was 25 nM for ASK1). The reaction mixture may then be incubated at room temperature for 1 hour, and quenched and developed by the addition of 6 μL of 100-fold diluted STK-antibody-Cryptate and 250 nM SA-XL665 in Cisbio HTRF detection buffer (50 mM HEPES, pH7.0, 0.1% BSA, 0.8 M KF, and 20 mM EDTA). The fluorescence intensity is measured at 620 nm (Cryptate) and 665 nm (XL665) after a 1-2 hour incubation at room temperature. A ratio is calculated (665/620) for each well and is fitted to the standard IC50 curve to determine inhibition constants (IC50).

| SMILES | IC50 [1] | IC50 [2] | melting point |
| --- | --- | --- | --- |
| CCn1cc(Cl)c2cnc(NC(=O)c3ccc([C@](C)(O)CO)cc3)cc21 [Compound 26, (S)—N-(3-chloro-1-ethyl-1H-pyrrolo[3,2-c]pyridin-6-yl)-4-(1,2-dihydroxypropan-2-yl)benzamide] | 9 nM | 12 nM | 223 to 223.9 °C |
| CCn1cc(Cl)c2cnc(NC(=O)c3ccc([C@@](C)(O)CO)cc3)cc21 [Compound 14, (R)—N-(3-chloro-1-ethyl-1H-pyrrolo[3,2-c]pyridin-6-yl)-4-(1,2-dihydroxypropan-2-yl)benzamide] | 6 nM | 16 nM | 224.4 to 225.1 °C |
| Cn1cc(Cl)c2cnc(NC(=O)c3ccc([C@](C)(O)CO)cc3)cc21 [Compound 29, (S)—N-(3-chloro-1-methyl-1H-pyrrolo[3,2-c]pyridin-6-yl)-4-(1,2-dihydroxypropan-2-yl)benzamide] | – | 38 nM | 210 to 212 °C |
